Experimental data: PubChem BioAssay AID248 (DTP/NCI, 2004)
“And” between values parts separate entries of the source, which are not always exact repeats. Identical values can stand only once. Toxic doses and inconclusive results are not listed. Cut-off read from the data, not from the text of the source: active = T/C of 150% or more; inactive = T/C below 125%.

System: L1210 leukemia ip in BDF1 mice, survival T/C
Test: NCI In Vivo Anticancer Drug Screen. Data for tumor model L1210 Leukemia (intraperitoneal) in B6D2F1 (BDF1) mice
Settings: endpoint: mean survival time, higher = longer survival
Method in brief: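 Read-out is survival time, reported as the treated-group measurement over the vehicle-control measurement.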

[1] = dose: 3.12 mg/kg/injection, schedule: Q01DX009 (ip), vehicle: saline
[2] = dose: 6.25 mg/kg/injection, schedule: Q01DX009 (ip), vehicle: saline
[3] = dose: 12.5 mg/kg/injection, schedule: Q01DX009 (ip), vehicle: saline
[4] = dose: 100.0 mg/kg/injection, schedule: Q04DX003 (ip), vehicle: Klucel (hydroxypropylcellulose) (HPC)
[5] = dose: 200.0 mg/kg/injection, schedule: Q04DX003 (ip), vehicle: Klucel (hydroxypropylcellulose) (HPC)
[6] = dose: 400.0 mg/kg/injection, schedule: Q04DX003 (ip), vehicle: Klucel (hydroxypropylcellulose) (HPC)
[7] = dose: 50.0 mg/kg/injection, schedule: Q01DX009 (ip), vehicle: Klucel (hydroxypropylcellulose) (HPC)
[8] = dose: 100.0 mg/kg/injection, schedule: Q01DX009 (ip), vehicle: Klucel (hydroxypropylcellulose) (HPC)
[9] = dose: 200.0 mg/kg/injection, schedule: Q01DX009 (ip), vehicle: Klucel (hydroxypropylcellulose) (HPC)
[10] = dose: 400.0 mg/kg/injection, schedule: Q01DX009 (ip), vehicle: Klucel (hydroxypropylcellulose) (HPC)
[11] = dose: 100.0 mg/kg/injection, schedule: Q04DX003 (ip), vehicle: saline with Tween-80
[12] = dose: 200.0 mg/kg/injection, schedule: Q04DX003 (ip), vehicle: saline with Tween-80
[13] = dose: 50.0 mg/kg/injection, schedule: Q01DX001 (ip), vehicle: carboxymethylcellulose (CMC)
[14] = dose: 100.0 mg/kg/injection, schedule: Q01DX001 (ip), vehicle: carboxymethylcellulose (CMC)
[15] = dose: 200.0 mg/kg/injection, schedule: Q01DX001 (ip), vehicle: carboxymethylcellulose (CMC)
[16] = dose: 100.0 mg/kg/injection, schedule: Q01DX009 (ip), vehicle: saline
[17] = dose: 100.0 mg/kg/injection, schedule: Q04DX003 (ip), vehicle: saline
[18] = dose: 200.0 mg/kg/injection, schedule: Q04DX003 (ip), vehicle: saline
[19] = dose: 400.0 mg/kg/injection, schedule: Q04DX003 (ip), vehicle: saline

Measured: T/C

CN=C(NC)c1ccc(NC(=NC)c2ccc(C(=NC)Nc3ccc(C(=NC)NC)cc3)cc2)cc1
inactive: dose: 0.5 mg/kg/injection, schedule: Q01DX Z (ip), vehicle: saline 96 % of control | dose: 0.8 mg/kg/injection, schedule: Q01DX Z (ip), vehicle: saline 94 % of control | dose: 1.2 mg/kg/injection, schedule: Q01DX Z (ip), vehicle: saline 100 % of control | dose: 1.7 mg/kg/injection, schedule: Q01DX Z (ip), vehicle: saline 105 % of control | dose: 1.77 mg/kg/injection, schedule: Q01DX Z (ip), vehicle: saline 98 % of control | dose: 2.66 mg/kg/injection, schedule: Q01DX Z (ip), vehicle: saline 104 % of control | dose: 4.0 mg/kg/injection, schedule: Q01DX Z (ip), vehicle: saline 89 % of control | dose: 6.0 mg/kg/injection, schedule: Q01DX Z (ip), vehicle: saline 93 % of control and 103 % of control

CCCCCCCCCCCCNCCCCCCCCCCCC
inactive: [1] 102 % of control | [2] 97 % of control | dose: 6.25 mg/kg/injection, schedule: Q04DX003 (ip), vehicle: acetone 100 % of control | dose: 12.5 mg/kg/injection, schedule: Q01DX001 (ip), vehicle: saline 93 % of control | [3] 102 % of control | dose: 12.5 mg/kg/injection, schedule: Q04DX003 (ip), vehicle: acetone 96 % of control | dose: 25.0 mg/kg/injection, schedule: Q01DX001 (ip), vehicle: saline 93 % of control | dose: 100.0 mg/kg/injection, schedule: Q01DX009 (ip), vehicle: other 105 % of control | dose: 200.0 mg/kg/injection, schedule: Q01DX009 (ip), vehicle: other 105 % of control | dose: 400.0 mg/kg/injection, schedule: Q01DX009 (ip), vehicle: other 93 % of control

CN(C)C(=S)Oc1ccc(Cl)cc1S(=O)(=O)F
inactive: [4] 106 % of control | [5] 101 % of control | [6] 102 % of control

O=c1cc(-c2ccccc2)[nH]c2ccc(S(=O)(=O)O)cc12
inactive: [4] 93 % of control | [5] 106 % of control | [6] 96 % of control

Brc1cc(Br)c(-c2c(Br)cc(Br)cc2Br)c(Br)c1
inactive: [7] 111 % of control | [8] 93 % of control | [4] 108 % of control | [9] 101 % of control | [5] 105 % of control | [10] 98 % of control | [6] 95 % of control

CCCCC(C#N)(CCCC)C(=O)OCC
inactive: [11] 93 % of control | [12] 98 % of control

CCN(CC)c1cc(C(C)(C)C)cc(C(C)(C)C)c1
inactive: dose: 100.0 mg/kg/injection, schedule: Q04DX003 (ip), vehicle: saline sonified 114 % of control | dose: 200.0 mg/kg/injection, schedule: Q04DX003 (ip), vehicle: saline sonified 94 % of control | dose: 400.0 mg/kg/injection, schedule: Q04DX003 (ip), vehicle: saline sonified 101 % of control

Cc1cccc[n+]1C
inactive: [13] 111 % of control | dose: 100.0 mg/kg/injection, schedule: Q01DX001 (ip), vehicle: Klucel (hydroxypropylcellulose) (HPC) 95 % of control | [14] 92 % of control | dose: 200.0 mg/kg/injection, schedule: Q01DX001 (ip), vehicle: Klucel (hydroxypropylcellulose) (HPC) 104 % of control | [15] 103 % of control

CCOC(=O)C1(C(=O)OCC)CCC(O)N1C(=O)c1cc(OC)c(OC)cc1[N+](=O)[O-] (stereo unspecified)
inactive: [4] 97 % of control | [5] 99 % of control | [6] 97 % of control

Nc1ncnn1C(=S)NCc1ccccc1
inactive: [16] 100 % of control | [17] 89 % of control | [18] 90 % of control | [19] 88 % of control

CC(C)(C)C(=O)OCn1cnc(=N)c2[nH]cnc21
inactive: [4] 100 % of control | [5] 108 % of control

Cc1ccnc(NC2=CC(=O)C(=O)c3ccccc32)c1
inactive: dose: 100.0 mg/kg/injection, schedule: Q01DX001 (ip), vehicle: other 93 % of control | dose: 200.0 mg/kg/injection, schedule: Q01DX001 (ip), vehicle: other 95 % of control | dose: 400.0 mg/kg/injection, schedule: Q01DX001 (ip), vehicle: other 103 % of control

CCCCCCCC/C=N/Nc1nnc(N/N=C/CCCCCCCC)c2ccccc12
inactive: [13] 108 % of control | [14] 114 % of control | dose: 177.0 mg/kg/injection, schedule: Q01DX001 (ip), vehicle: carboxymethylcellulose (CMC) 93 % of control and 111 % of control | [15] 114 % of control | dose: 266.0 mg/kg/injection, schedule: Q01DX001 (ip), vehicle: carboxymethylcellulose (CMC) 119 % of control | dose: 400.0 mg/kg/injection, schedule: Q01DX001 (ip), vehicle: carboxymethylcellulose (CMC) 102 % of control | dose: 600.0 mg/kg/injection, schedule: Q01DX001 (ip), vehicle: carboxymethylcellulose (CMC) 101 % of control

CC(=O)NC(CSCc1c2ccccc2c(C)c2ccccc12)C(=O)O (stereo unspecified)
inactive: dose: 25.0 mg/kg/injection, schedule: Q01DX009 (ip), vehicle: saline with Tween-80 97 % of control | dose: 50.0 mg/kg/injection, schedule: Q01DX009 (ip), vehicle: saline with Tween-80 101 % of control | dose: 100.0 mg/kg/injection, schedule: Q01DX009 (ip), vehicle: saline with Tween-80 97 % of control and 92 % of control | [11] 94 % of control | dose: 200.0 mg/kg/injection, schedule: Q01DX009 (ip), vehicle: saline with Tween-80 88 % of control | [12] 96 % of control | dose: 400.0 mg/kg/injection, schedule: Q04DX003 (ip), vehicle: saline with Tween-80 96 % of control

Cn1cnc(=O)c2ccccc21
inactive: [17] 88 % of control | [18] 100 % of control

CC(=O)OC1C(CO)OC2C1OC1=NC(N)=NCN12 (stereo unspecified)
inactive: dose: 1.56 mg/kg/injection, schedule: Q01DX009 (ip), vehicle: saline 102 % of control and 119 % of control | [1] 102 % of control | [2] 95 % of control and 98 % of control | [3] 96 % of control and 98 % of control | dose: 25.0 mg/kg/injection, schedule: Q01DX009 (ip), vehicle: saline 96 % of control | dose: 50.0 mg/kg/injection, schedule: Q01DX009 (ip), vehicle: saline 100 % of control and 91 % of control | [16] 104 % of control and 91 % of control | dose: 200.0 mg/kg/injection, schedule: Q01DX009 (ip), vehicle: saline 107 % of control and 109 % of control

CCCC(C1=CC(C)(C)c2ccccc2C1=O)c1ccc(Br)cc1 (stereo unspecified)
inactive: [8] 108 % of control | [4] 110 % of control | [9] 106 % of control | [5] 113 % of control | [10] 103 % of control | [6] 106 % of control

CCCCCCCCC(CCc1ccccc1)CCc1ccccc1
inactive: dose: 100.0 mg/kg/injection, schedule: Q01DX001 (ip), vehicle: saline with Tween-80 93 % of control | dose: 200.0 mg/kg/injection, schedule: Q01DX001 (ip), vehicle: saline with Tween-80 93 % of control | dose: 400.0 mg/kg/injection, schedule: Q01DX001 (ip), vehicle: saline with Tween-80 96 % of control

CCCC/C(=N\OP(=O)(OCC)OCC)c1ccccc1
inactive: dose: 75.0 mg/kg/injection, schedule: Q01DX001 (ip), vehicle: saline 101 % of control | dose: 150.0 mg/kg/injection, schedule: Q01DX001 (ip), vehicle: saline 107 % of control | dose: 300.0 mg/kg/injection, schedule: Q01DX001 (ip), vehicle: saline 91 % of control

O=C(O)C1CC(c2ccccc2)=C(c2ccccc2)CC1C(=O)O (stereo unspecified)
inactive: dose: 50.0 mg/kg/injection, schedule: Q04DX002 (ip), vehicle: Klucel (hydroxypropylcellulose) (HPC) 105 % of control | dose: 100.0 mg/kg/injection, schedule: Q04DX002 (ip), vehicle: Klucel (hydroxypropylcellulose) (HPC) 102 % of control and 114 % of control and 100 % of control | dose: 200.0 mg/kg/injection, schedule: Q04DX002 (ip), vehicle: Klucel (hydroxypropylcellulose) (HPC) 102 % of control and 100 % of control

CC(C)C1CCC(C)C(OB(OC2CC(C(C)C)CCC2C)OC2CC(C(C)C)CCC2C)C1 (stereo unspecified)
inactive: [4] 88 % of control | [5] 99 % of control | [6] 88 % of control

COc1cc2ccc(CC(N)=O)cc2cc1OC
inactive: [17] 100 % of control | [18] 97 % of control | [19] 98 % of control

CC1(c2cccc3ccccc23)NC(=O)c2ccccc2N1 (stereo unspecified)
inactive: [7] 98 % of control | [8] 103 % of control | dose: 150.0 mg/kg/injection, schedule: Q01DX009 (ip), vehicle: Klucel (hydroxypropylcellulose) (HPC) 101 % of control
